# Results published in patent publication US11647751B2, “Use of phosphorus containing herbicides as desiccant for plants of the genus Saccharum” (BASF SE, priority 2013, dated 2023).
# Tested on: Saccharum officinarum plants
# Assay: Field trial: desiccation of sugarcane leaves after application of diluted glufosinate-ammonium compositions
# Format: in vivo
# Conditions: growth stage BBCH 49 (approx. 300 cm), evaluation 2 weeks after application
# Method: The compositions described in the table above were diluted with water and applied to a field of Saccharum officinarum plants at growth stage BBCH 49 (approximately 300 cm growth height; corresponding to about 2 weeks before harvest), such that the amount of glufosinate ammonium was 800 g/ha or 1000 g/ha, respectively.
structure (smiles),measurement,setting,value
"CP(=O)(O)CCC(N)C(=O)O (centres unmarked) [glufosinate ammonium, 2-amino-4-[hydroxy(methyl)phosphinoyl]butanoic acid]",desiccation of sugarcane leaves,800 g/ha glufosinate ammonium,54%
same,desiccation of sugarcane leaves,1000 g/ha glufosinate ammonium,60%
